Test results reported in the supplement of paper PMC10307832.

Assays:
Experiment in all cases: relative viability (nuclei count vs DMSO), 5 days (fraction); higher = more cells survive
[1] = compound: Cc1cnc(CNC(=O)c2c(=O)c3ccc(N4CCCN(C)CC4)nc3n3c2sc2ccccc23)cn1 [CX-5461] + Cc1cc(Nc2cc(N3CCN(C)CC3)nc(Sc3ccc(NC(=O)C4CC4)cc3)n2)n[nH]1 [Tozasertib] (partner 0.1 µM)
Summary of the method: (§1)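 Lung cancer cell lines in 1536-well plates were dosed by pin tool the day after seeding, either with one drug alone or with a fixed anchor-drug dose plus five library-drug doses (not always all listed) in √10 steps. After 5 days, cells were fixed and their nuclei stained in one step (final 0.05% Triton X-100, 1% formaldehyde, 1 ug/ml Hoechst), then counted on 4× images. Relative viability is the nuclei count in treated wells divided by that in vehicle wells. Values are medians of duplicate plates.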

[2] = compound: Cc1cnc(CNC(=O)c2c(=O)c3ccc(N4CCCN(C)CC4)nc3n3c2sc2ccccc23)cn1 [CX-5461] + COc1cccc2cc(-c3nc([C@H]4CC[C@H](C(=O)O)CC4)n4ncnc(N)c34)[nH]c12 [OSI-027] (partner 0.5 µM)
Summary of the method: as §1

[3] = compound: O=C(Nc1cc(C(F)(F)F)cc(C(F)(F)F)c1)c1cc(Cl)ccc1O [IMD-0354] + N=C(N)NC(=N)NCCc1ccccc1 [Phenformin] (partner 250 µM)
Summary of the method: as §1

[4] = compound: Cc1cnc(CNC(=O)c2c(=O)c3ccc(N4CCCN(C)CC4)nc3n3c2sc2ccccc23)cn1 [CX-5461] + Cc1nc(Nc2ncc(C(=O)Nc3c(C)cccc3Cl)s2)cc(N2CCN(CCO)CC2)n1 [Dasatinib] (partner 0.075 µM)
Summary of the method: as §1

UMC-11 was tested, and the relative viability ([1]; first compound 0.01 µM) was 0.189, the relative viability ([1]; first compound 0.03162 µM) was 0.201 and the relative viability ([1]; first compound 0.1 µM) was 0.204. It also gave a relative viability ([1]; first compound 0.3162 µM) of 0.198, a relative viability ([1]; first compound 1 µM) of 0.243 and a relative viability ([2]; first compound 0.01 µM) of 0.542. For the same cell line, the relative viability ([2]; first compound 0.03162 µM) was 0.431, the relative viability ([2]; first compound 0.1 µM) was 0.389 and the relative viability ([2]; first compound 0.3162 µM) was 0.475. It also gave a relative viability ([2]; first compound 1 µM) of 0.274, a relative viability ([3]; first compound 0.04 µM) of 0.321 and a relative viability ([3]; first compound 0.1265 µM) of 0.229. It also gave a relative viability ([3]; first compound 0.4 µM) of 0.202, a relative viability ([3]; first compound 1.265 µM) of 0.167 and a relative viability ([3]; first compound 4 µM) of 0.181. The relative viability ([4]; first compound 0.01 µM) was 0.446, the relative viability ([4]; first compound 0.03162 µM) was 0.519 and the relative viability ([4]; first compound 0.1 µM) was 0.364. The relative viability ([4]; first compound 0.3162 µM) was 0.39 and the relative viability ([4]; first compound 1 µM) was 0.246.
